Legend:
[1] = target: CK1g2 (Homo sapiens, UniProt P78368); experiment: biochemical; settings: read-out: % enzyme activity, 1 μM; Run 1, Run 2
[2] = target: CDK14/cyclin Y (PFTK1) (Homo sapiens, UniProt O94921); experiment: biochemical; settings: read-out: % enzyme activity, 1 μM; Run 1, Run 2
[3] = target: MSK1/RPS6KA5 (Homo sapiens, UniProt O75582); experiment: biochemical; settings: read-out: % enzyme activity, 1 μM; Run 1, Run 2
[4] = target: T1, ERK7/MAPK15 (Homo sapiens, UniProt Q8TD08); settings: 1 μM; Run 1, Run 2
T1 sequence (Q8TD08 1-544): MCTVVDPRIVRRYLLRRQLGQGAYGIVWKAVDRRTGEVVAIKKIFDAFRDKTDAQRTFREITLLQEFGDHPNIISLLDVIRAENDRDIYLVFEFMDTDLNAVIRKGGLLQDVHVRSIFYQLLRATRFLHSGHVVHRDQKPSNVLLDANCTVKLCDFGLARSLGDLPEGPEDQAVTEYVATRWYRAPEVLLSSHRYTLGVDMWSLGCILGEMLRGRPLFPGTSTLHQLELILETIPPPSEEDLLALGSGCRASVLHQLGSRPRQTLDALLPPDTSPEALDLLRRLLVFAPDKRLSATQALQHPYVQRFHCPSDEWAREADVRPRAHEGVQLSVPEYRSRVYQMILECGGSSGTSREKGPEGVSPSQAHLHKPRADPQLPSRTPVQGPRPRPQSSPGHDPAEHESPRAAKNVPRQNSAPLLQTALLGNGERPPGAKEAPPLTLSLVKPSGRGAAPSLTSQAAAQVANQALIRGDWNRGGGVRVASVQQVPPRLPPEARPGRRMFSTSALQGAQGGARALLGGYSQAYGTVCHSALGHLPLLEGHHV

[5] = target: T2, DDR2 (Homo sapiens, UniProt Q16832); experiment: biochemical; settings: read-out: % enzyme activity, 1 μM; Run 1, Run 2
T2 sequence (Q16832 22-855): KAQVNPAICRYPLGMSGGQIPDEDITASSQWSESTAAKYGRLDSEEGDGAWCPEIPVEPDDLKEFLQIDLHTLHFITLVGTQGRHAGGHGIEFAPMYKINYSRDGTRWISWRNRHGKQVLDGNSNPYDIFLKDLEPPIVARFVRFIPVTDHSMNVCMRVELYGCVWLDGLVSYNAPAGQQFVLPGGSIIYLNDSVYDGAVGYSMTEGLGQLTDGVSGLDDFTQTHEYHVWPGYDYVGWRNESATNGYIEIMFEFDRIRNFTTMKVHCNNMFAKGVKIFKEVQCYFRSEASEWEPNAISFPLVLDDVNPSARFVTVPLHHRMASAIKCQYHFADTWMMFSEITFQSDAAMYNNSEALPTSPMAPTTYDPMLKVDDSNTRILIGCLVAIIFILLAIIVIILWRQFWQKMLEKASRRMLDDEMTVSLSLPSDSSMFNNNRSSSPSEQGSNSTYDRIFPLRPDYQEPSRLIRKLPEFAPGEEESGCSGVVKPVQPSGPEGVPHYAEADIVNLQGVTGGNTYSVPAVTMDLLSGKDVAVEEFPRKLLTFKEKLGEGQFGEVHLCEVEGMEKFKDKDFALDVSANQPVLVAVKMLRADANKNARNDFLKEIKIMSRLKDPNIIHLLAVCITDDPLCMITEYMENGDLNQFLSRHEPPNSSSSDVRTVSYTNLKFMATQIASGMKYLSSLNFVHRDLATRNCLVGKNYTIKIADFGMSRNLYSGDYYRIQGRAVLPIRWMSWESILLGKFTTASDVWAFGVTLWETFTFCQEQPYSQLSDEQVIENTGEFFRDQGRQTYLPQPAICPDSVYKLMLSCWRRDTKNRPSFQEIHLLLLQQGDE

[6] = target: T3, IKKe/IKBKE (Homo sapiens, UniProt Q14164); experiment: biochemical; settings: read-out: % enzyme activity, 1 μM; Run 1, Run 2
T3 sequence (Q14164 1-716): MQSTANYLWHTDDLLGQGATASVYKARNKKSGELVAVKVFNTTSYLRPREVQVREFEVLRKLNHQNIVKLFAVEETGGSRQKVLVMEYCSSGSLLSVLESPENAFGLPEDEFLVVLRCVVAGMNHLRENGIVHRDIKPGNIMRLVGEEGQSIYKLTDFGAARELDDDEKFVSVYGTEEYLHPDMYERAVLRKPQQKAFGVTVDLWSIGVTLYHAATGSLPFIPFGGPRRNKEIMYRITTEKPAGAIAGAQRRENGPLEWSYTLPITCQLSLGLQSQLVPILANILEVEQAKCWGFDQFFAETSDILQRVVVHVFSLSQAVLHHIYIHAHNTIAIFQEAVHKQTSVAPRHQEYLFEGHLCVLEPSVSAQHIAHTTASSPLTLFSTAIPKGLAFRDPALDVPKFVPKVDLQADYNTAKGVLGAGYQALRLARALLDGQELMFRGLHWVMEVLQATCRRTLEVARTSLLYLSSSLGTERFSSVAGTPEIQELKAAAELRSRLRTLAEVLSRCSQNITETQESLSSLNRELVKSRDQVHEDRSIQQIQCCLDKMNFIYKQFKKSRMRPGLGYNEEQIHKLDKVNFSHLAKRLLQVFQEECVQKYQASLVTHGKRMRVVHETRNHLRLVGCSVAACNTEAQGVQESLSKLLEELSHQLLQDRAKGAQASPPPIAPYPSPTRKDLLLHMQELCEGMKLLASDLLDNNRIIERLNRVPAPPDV

[7] = target: CDK7/cyclin H (Homo sapiens, UniProt P50613); experiment: biochemical; settings: read-out: % enzyme activity, 1 μM; Run 1, Run 2
Sequence of CDK7/cyclin H (P50613 whole entry): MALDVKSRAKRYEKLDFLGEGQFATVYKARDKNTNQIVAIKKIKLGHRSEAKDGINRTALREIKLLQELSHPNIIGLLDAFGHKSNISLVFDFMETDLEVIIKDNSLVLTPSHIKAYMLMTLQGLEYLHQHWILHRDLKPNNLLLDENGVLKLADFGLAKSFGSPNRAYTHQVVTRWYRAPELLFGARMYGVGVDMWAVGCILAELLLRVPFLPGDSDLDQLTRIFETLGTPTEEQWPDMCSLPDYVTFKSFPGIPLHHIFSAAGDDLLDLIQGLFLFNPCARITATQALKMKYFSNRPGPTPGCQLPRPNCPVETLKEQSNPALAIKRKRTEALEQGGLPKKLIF
Sequence of CDK7/cyclin H (P51946 whole entry partner): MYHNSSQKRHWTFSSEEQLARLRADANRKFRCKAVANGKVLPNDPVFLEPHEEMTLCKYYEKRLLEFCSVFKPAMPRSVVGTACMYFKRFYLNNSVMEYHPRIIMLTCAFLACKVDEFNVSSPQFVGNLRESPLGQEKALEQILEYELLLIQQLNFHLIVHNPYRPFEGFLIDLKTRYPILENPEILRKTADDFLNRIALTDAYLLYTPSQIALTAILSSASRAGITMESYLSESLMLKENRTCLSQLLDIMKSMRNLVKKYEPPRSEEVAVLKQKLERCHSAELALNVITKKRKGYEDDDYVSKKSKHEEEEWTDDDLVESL
Sequence of CDK7/cyclin H (P51948 whole entry partner): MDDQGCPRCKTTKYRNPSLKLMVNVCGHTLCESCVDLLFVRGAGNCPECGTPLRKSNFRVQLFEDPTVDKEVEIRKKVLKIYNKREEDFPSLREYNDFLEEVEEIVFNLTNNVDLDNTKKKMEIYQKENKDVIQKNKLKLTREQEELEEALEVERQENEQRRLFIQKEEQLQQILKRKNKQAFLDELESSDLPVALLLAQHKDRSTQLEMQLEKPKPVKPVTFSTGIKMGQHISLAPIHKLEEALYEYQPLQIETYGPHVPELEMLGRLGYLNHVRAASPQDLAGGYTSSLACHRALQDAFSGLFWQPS

[8] = target: CAMK1b (Homo sapiens, UniProt Q6P2M8); experiment: biochemical; settings: read-out: % enzyme activity, 1 μM; Run 1, Run 2
Sequence of CAMK1b (Q6P2M8 whole entry): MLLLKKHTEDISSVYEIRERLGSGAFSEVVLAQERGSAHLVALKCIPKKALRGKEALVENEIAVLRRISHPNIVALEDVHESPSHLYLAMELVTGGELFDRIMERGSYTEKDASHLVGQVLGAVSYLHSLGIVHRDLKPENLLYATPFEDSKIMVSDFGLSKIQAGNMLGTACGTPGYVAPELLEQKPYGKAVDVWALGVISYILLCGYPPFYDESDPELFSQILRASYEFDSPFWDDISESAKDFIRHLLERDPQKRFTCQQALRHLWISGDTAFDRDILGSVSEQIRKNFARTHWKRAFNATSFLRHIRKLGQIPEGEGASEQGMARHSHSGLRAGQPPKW

Sequence of CK1g2 (P78368 whole entry): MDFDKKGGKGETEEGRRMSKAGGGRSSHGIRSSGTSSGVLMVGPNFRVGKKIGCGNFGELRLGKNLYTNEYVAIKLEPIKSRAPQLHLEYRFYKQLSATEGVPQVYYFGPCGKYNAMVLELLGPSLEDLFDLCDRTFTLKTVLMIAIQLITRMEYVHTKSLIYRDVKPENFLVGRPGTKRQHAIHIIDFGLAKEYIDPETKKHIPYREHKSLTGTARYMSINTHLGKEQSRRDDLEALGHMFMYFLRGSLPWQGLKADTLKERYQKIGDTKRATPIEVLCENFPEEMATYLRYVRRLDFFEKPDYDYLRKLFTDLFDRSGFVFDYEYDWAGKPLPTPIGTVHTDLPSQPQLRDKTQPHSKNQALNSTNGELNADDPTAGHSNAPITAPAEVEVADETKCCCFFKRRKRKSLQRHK
Sequence of CDK14/cyclin Y (PFTK1) (O94921 whole entry): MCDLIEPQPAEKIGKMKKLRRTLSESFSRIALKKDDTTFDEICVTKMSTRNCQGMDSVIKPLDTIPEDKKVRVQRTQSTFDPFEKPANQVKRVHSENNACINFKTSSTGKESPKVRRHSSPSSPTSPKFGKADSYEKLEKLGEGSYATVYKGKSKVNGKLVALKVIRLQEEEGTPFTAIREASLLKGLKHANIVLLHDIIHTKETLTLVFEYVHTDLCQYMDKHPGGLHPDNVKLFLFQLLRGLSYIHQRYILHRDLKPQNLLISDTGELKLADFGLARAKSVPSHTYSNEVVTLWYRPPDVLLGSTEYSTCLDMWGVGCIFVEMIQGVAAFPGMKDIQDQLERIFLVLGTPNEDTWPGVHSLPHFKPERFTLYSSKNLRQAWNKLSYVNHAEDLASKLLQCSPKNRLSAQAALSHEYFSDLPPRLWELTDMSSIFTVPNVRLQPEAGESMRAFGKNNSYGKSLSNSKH
Sequence of CDK14/cyclin Y (PFTK1) (Q8ND76 whole entry partner): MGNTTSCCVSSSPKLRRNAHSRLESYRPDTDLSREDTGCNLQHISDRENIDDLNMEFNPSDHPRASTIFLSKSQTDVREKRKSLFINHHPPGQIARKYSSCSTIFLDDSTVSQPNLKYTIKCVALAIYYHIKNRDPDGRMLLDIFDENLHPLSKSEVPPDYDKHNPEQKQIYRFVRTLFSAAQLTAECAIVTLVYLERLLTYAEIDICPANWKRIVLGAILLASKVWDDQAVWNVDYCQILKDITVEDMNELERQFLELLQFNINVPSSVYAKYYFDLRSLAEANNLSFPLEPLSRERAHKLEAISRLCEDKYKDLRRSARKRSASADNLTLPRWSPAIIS
Sequence of MSK1/RPS6KA5 (O75582 whole entry): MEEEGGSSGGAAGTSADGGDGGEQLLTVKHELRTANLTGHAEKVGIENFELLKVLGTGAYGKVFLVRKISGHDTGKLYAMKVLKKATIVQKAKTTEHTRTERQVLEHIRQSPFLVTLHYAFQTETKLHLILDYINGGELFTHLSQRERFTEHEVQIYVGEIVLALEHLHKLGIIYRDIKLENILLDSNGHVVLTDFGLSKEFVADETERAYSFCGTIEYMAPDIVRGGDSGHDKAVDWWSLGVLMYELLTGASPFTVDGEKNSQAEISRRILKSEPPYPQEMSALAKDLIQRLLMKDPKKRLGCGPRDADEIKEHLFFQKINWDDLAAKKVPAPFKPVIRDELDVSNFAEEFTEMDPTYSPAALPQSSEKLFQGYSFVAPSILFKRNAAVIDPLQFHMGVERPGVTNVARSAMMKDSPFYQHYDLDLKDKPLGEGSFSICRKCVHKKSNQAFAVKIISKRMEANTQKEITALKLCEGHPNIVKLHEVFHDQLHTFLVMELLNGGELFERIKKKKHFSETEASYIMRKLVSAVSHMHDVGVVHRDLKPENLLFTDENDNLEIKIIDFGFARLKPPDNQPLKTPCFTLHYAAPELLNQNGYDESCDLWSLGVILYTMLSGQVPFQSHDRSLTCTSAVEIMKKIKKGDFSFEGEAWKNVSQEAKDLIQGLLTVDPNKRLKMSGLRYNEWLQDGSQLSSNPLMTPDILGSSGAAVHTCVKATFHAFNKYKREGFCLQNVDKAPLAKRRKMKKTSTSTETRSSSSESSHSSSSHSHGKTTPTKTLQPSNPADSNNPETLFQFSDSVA

Question: For COc1cc(-c2cncc(-c3ccc(N4CCN(C)CC4)cc3)c2C)cc(F)c1C(N)=O [Compound 26a, 2-Fluoro-6-methoxy-4-(4-methyl-5-(4-(4-methylpiperazin-1-yl)phenyl)pyridin-3-yl)benzamide], which remaining activity at 1 µM [1] is on record?
Answer: 78%

Question: What about the remaining activity at 1 µM [2] of the same molecule?
Answer: 98.4%

Question: What about the remaining activity at 1 µM [3] of the same molecule?
Answer: 87.1%

Question: And the “% enzyme activity” value [4]?
Answer: 85.69%

Question: What about the remaining activity at 1 µM [5] of the same molecule?
Answer: 100%

Question: And the remaining activity at 1 µM [6]?
Answer: 91.1%

Question: What about the remaining activity at 1 µM [7] of the same molecule?
Answer: 97%

Question: And the remaining activity at 1 µM [8]?
Answer: 97.9%

Question: For COc1cc(-c2cncc(-c3ccc(N4C[C@@H](C)N(C)[C@@H](C)C4)cc3)c2C)cc(F)c1C(N)=O [Compound 26c, 2-Fluoro-6-methoxy-4-(4-methyl-5-(4-((3R,5S)-3,4,5-trimethylpiperazin-1-yl)phenyl)pyridin-3-yl)benzamide], which remaining activity at 1 µM [1] is on record?
Answer: 87%

Question: What about the remaining activity at 1 µM [2] of the same molecule?
Answer: 99.8%

Question: And the remaining activity at 1 µM [3]?
Answer: 90.5%

Question: What about the “% enzyme activity” value [4] of the same molecule?
Answer: 96.45%

Question: And the remaining activity at 1 µM [5]?
Answer: 92.7%

Question: And the remaining activity at 1 µM [6]?
Answer: 96.7%

Question: And the remaining activity at 1 µM [7]?
Answer: 96.1%

Question: And the remaining activity at 1 µM [8]?
Answer: 99.4%
